Data as given in patent US8821898B2, “Active compound combinations having insecticidal and acaricidal properties” (Bayer CropScience AG, priority 2003, dated 2014).

Key:
Format in all cases: in vivo
[1] = test system: Phaedon cochleariae larvae; assay: Phaedon cochleariae larvae test (dipped cabbage leaves)
Protocol: (§1) To produce a suitable preparation of active compound, 1 part by weight of active compound is mixed with the stated amounts of solvent and emulsifier, and the concentrate is diluted with emulsifier-containing water to the desired concentration.
Cabbage leaves (Brassica oleracea) are treated by being dipped into the preparation of active compound of the desired concentration and are populated with larvae of the mustard beetle (Phaedon cochleariae) while the leaves are still moist.
After the desired period of time, the kill in % is determined. 100% means that all beetle larvae have been killed; 0% means that none of the beetle larvae have been killed. The determined kill rates are entered into Colby's formula (see page 41).

Aphis gossypii = Aphis gossypii test (dipped cotton leaves)
Protocol: as §1
Cotton leaves (Gossypium hirsutum) which are heavily infested by the cotton aphid (Aphis gossypii) are treated by being dipped into the preparation of active compound of the desired concentration.
After the desired period of time; the kill in % is determined. 100% means that all aphids have been killed; 0% means that none of the aphids have been killed. The determined kill rates are entered into Colby's formula (see page 41).

Myzus persicae = Myzus persicae test (dipped cabbage leaves); settings: 4 ppm
Protocol: as §1
Cabbage leaves (Brassica oleracea) which are heavily infested by the green peach aphid (Myzus persicae) are treated by being dipped into the preparation of active compound of the desired concentration.
After the desired period of time, the kill in % is determined. 100% means that all aphids have been killed; 0% means that none of the aphids have been killed. The determined kill rates are entered into Colby's formula (see on page 41).

Spodoptera frugiperda = Spodoptera frugiperda test (dipped cabbage leaves)
Protocol: as §1
Cabbage leaves (Brassica oleracea) are treated by being dipped into the preparation of active compound of the desired concentration and are populated with caterpillars of the army worm (Spodoptera frugiperda) while the leaves are still moist.
(§2) After the desired period of time, the kill in % is determined. 100% means that all caterpillars have been killed; 0% means that none of the caterpillars have been killed. The determined kill rates are entered into Colby's formula (see page 41).

[2] = test system: Plutella xylostella, resistant strain; assay: Plutella xylostella test (resistant strain)
Protocol: as §1
Cabbage leaves (Brassica oleracea) are treated by being dipped into the preparation of active compound of the desired concentration and are populated with caterpillars of the diamondback moth (Plutella xylostella, resistant strain) while the leaves are still moist.
as §2

## CC(C)N1C(=O)N(c2ccccc2)CS/C1=N\C(C)(C)C [(2-2) buprofezin, buprofezin, reference compound]
[1]; 100 ppm
  Kill rate in % after 3d, found: 20%
Aphis gossypii; 20 ppm
  Kill rate in % after 7d, found: 0%

## N#CCNC(=O)c1cnccc1C(F)(F)F [(2-6) flonicamid, flonicamid, reference compound]
Myzus persicae; Table B2
  Kill rate in % after 6d, found: 40%
Aphis gossypii; 20 ppm
  Kill rate in % after 6d, found: 40%
Spodoptera frugiperda; 100 ppm
  Kill rate in % after 3d, found: 5%

## CCOC(=O)OC1=C(c2cc(C)ccc2C)C(=O)NC12CCC(OC)CC2 (stereo not shown) [I-a-4]
Myzus persicae; Table B1
  Kill rate in % after 6d, found: 80%
[1]; 4 ppm
  Kill rate in % after 6d, found: 15%
[2]; 0.16 ppm
  Kill rate in % after 6d, found: 0%

## Cc1cc(Cl)cc(C(=O)NC(C)C)c1NC(=O)c1cc(C(F)(F)F)nn1-c1ncccc1Cl [II-1-9]
Myzus persicae; Table B1
  Kill rate in % after 6d, found: 30%
Myzus persicae; Table B2
  Kill rate in % after 6d, found: 0%
[1]; 0.16 ppm
  Kill rate in % after 3d, found: 5%
  Kill rate in % after 6d, found: 0%
Aphis gossypii; 4 ppm
  Kill rate in % after 7d, found: 20%
Aphis gossypii; 20 ppm
  Kill rate in % after 6d, found: 55%
[2]; 0.0064 ppm
  Kill rate in % after 6d, found: 0%
Spodoptera frugiperda; 0.16 ppm
  Kill rate in % after 3d, found: 45%
